Tests used:
TECs = assay: GDNF ELISA in conditioned media from TECs; type: cell-based, mouse; conditions: for GDNF production in conditioned media of TECs after FGF-2 treatment: wild-type mouse TECs
Description: (§1) Testis, lung, or liver ECs were plated (10,000 cells ml^−1) on 12 well dishes coated with 0.1% gelatin and cultured for 24 hours. Conditioned media was harvested at 24 and 48 hours after FGF-2 (2 ng ml^−1, 20 ng ml^−1 and 50 ng ml^−1) treatment and analyzed by ELISA for GDNF (Promega GDNF Emax immunoassay system, #G7621) following the manufacturer's instruction. Statistics was analyzed using Graph Pad Prism. For quantification of Gdnf mRNA, total RNA was isolated from the cells using Direct-zol RNA MiniPrep (Zymo Research) and reverse transcribed using High Capacity cDNA Reverse Transcription Kit (Appliedbiosystems), according to the manufacturer's instructions. All gene expression levels were normalized to GAPDH mRNA levels.
FIG. 2. a. Quantication of GDNF by ELISA in conditioned media from TECs, LuECs and LiECs after treatment with the indicated concentration of FGF-2 for 2 days, n=3. Bar=100 μm. Data are presented as the mean±s.e.m. b. Representative brighteld (BF) and GFP images of 2D cultures of GFP+ SSCs co-cultured with STO cells or TECs plus exogenous GDNF and FGF-2 on days 1 and 8 after seeding. Quantication of stem cell numbers 8 days after co-culture with STO or TECs and the average colony area are shown on the right, n=3. Data are presented as the mean±s.e.m. Bar=100 μm. *P<0.05. c. Images of 2D co-cultures of GFP+Thy1.2+ SSCs with TECs and immunostained with the germ cell marker DDX4. Inset: bar=10 μm. d. The 3D spheroid co-cultures of GFP+Thy-1.2+ SSCs with TECs or LuECs were generated with Matrigel but no exogenous GDNF or FGF-2. GFP+ Spheroid co-cultures were immunostained with DDX4 (red), Oct4 (white) and DAPI (blue) at day 15. Quantication of the average diameter and total number of colonies is shown on the right; n=3. All data are presented as the mean±s.e.m. Bar=50 m, *P<0.05. **P<0.01. e. Representative BF images merged with GFP images of serially passaged GFP+Thy-1.2+ SSCs co-cultured with TECs at the indicated passage number (1st, 2nd, 3rd or 4th) or day (D). […]

LuECs = assay: GDNF ELISA in conditioned media from LuECs; type: cell-based; conditions: mouse LuECs
Description: as §1
FIG. 2. a. Quantication of GDNF by ELISA in conditioned media from TECs, LuECs and LiECs after treatment with the indicated concentration of FGF-2 for 2 days, n=3. Bar=100 μm. Data are presented as the mean±s.e.m. b. Representative brighteld (BF) and GFP images of 2D cultures of GFP+ SSCs co-cultured with STO cells or TECs plus exogenous GDNF and FGF-2 on days 1 and 8 after seeding. Quantication of stem cell numbers 8 days after co-culture with STO or TECs and the average colony area are shown on the right, n=3. Data are presented as the mean±s.e.m. Bar=100 μm. *P<0.05. c. […]

## fibroblast growth factor-2 [FGF-2]
TECs; Fgfr1−/− TECs compared to Fgfr1+/+ wild-type TECs
  GDNF expression in media of Fgfr1−/− TECs after FGF2 treatment: no increase in GDNF expression
TECs
  GDNF production in conditioned media of TECs after FGF-2 treatment: induced significant levels of GDNF
TECs; listed as FGF2
  GDNF production in conditioned media of TECs after FGF-2 treatment: stimulated significant GDNF production
LuECs
  GDNF production in conditioned media of LuECs after FGF-2 treatment: not
